Here are results for three compounds from ChEMBL document CHEMBL1138630, “Antioxidant activities of a new lignan and a neolignan from Saururus chinensis” (Bioorg Med Chem Lett, 2004).

Test [1] concerns Cell line. Nature of the test: Antioxidant activity on copper-induced peroxidation in low-density lipoprotein at 10 uM; expressed as area of absorbance/mm. It counts as functional, Homo sapiens.
Test [2] has as its system Cell line. The test is described as follows: Concentration required for inhibition of Cu+2-induced peroxidation in low-density lipoprotein of human. It counts as functional, cell-based.
Test [3] deals with Cell line. Nature of the test: Antioxidant activity on copper-induced peroxidation in low-density lipoprotein at 20 uM; expressed as area of absorbance/mm. In kind it is functional, Homo sapiens.
The subject of test [4] is Cell line. The test is described as follows: Effect of compound (0.1 uM) on macrophage-mediated oxidation of LDL was measured by MDA levels in the presence of Cu2+. It counts as functional, Homo sapiens.
The subject of test [5] is Cell line. The test is described as follows: Effect of compound (1 uM) on macrophage-mediated oxidation of LDL was measured by MDA levels in the presence of Cu2+. In kind it is functional, Homo sapiens.

The term IC50 denotes the concentration that gives 50% inhibition. Lower therefore signals greater potency in that assay. For `COc1ccc(C[C@H](C)[C@@H](C)Cc2cc(OC)c(O)cc2O)cc1O`, the Activity in the test with Cell line [1] is recorded as 6.45 AU/mm; with Cell line [3], 7.66 AU/mm; with Cell line [4], 358.9 nmol/mg LDL. In the test with Cell line [2], the IC50 amounted to 3.3 µM.

With `CC(C)(Sc1cc(C(C)(C)C)c(O)c(C(C)(C)C)c1)Sc1cc(C(C)(C)C)c(O)c(C(C)(C)C)c1` [PROBUCOL], the Activity with Cell line [1] was 4.32 AU/mm; in the test on Cell line [3], 6.7 AU/mm; with Cell line [5], 412.6 nmol/mg LDL. This compound displayed an IC50 with Cell line [2] of 2.8 µM.

On to `C/C=C/c1ccc(O[C@@H](C)[C@@H](O)c2ccc(O)c(OC)c2)c(OC)c1` [MACHILIN D], for which the Activity was determined as 5.81 AU/mm in the test on Cell line [1], 6.78 AU/mm in the test with Cell line [3] and 118.3 nmol/mg LDL with Cell line [4]. Also, inhibition in the test with Cell line [2] was half-maximal at 3.8 µM (IC50).
